Reference: patent US8952024B2, “Herbicidal pyrimidone derivatives” (E I du Pont de Nemours and Company, priority 2009, dated 2015)

Key:
Assay type in all cases: in vivo
[1] = tested on: wheat (Triticum aestivum); test: Test A pre-/postemergence plant response
Text: (§1) Seeds of barnyardgrass (Echinochloa crus-galli), large crabgrass (Digitaria sanguinalis), giant foxtail (Setaria faberii), morningglory (Ipomoea spp.), pigweed (Amaranthus retroflexus), velvetleaf (Abutilon theophrasti), wheat (Triticum aestivum) and corn (Zea mays) were planted into a blend of loam soil and sand and treated preemergence with a directed soil spray using test chemicals formulated in a non-phytotoxic solvent mixture which included a surfactant. At the same time these species were also treated with postemergence applications of test compounds formulated in the same manner.
(§2) Plants ranged in height from two to ten cm and were in the one- to two-leaf stage for the postemergence treatment. Treated plants and untreated controls were maintained in a greenhouse for approximately ten days, after which time all treated plants were compared to untreated controls and visually evaluated for injury. Plant response ratings, summarized in Table A, are based on a 0 to 100 scale where 0 is no effect and 100 is complete control. A dash (-) response means no test result.

[2] = tested on: barnyardgrass (Echinochloa crus-galli); test: Test A pre-/postemergence plant response
Text: as §1, §2

corn (Zea mays) = test: Test A pre-/postemergence plant response
Text: as §1, §2

[3] = tested on: morningglory (Ipomoea spp.); test: Test A pre-/postemergence plant response
Text: as §1, §2

[4] = tested on: pigweed (Amaranthus retroflexus); test: Test A pre-/postemergence plant response
Text: as §1, §2

[5] = tested on: giant foxtail (Setaria faberii); test: Test A pre-/postemergence plant response
Text: as §1, §2

[6] = tested on: large crabgrass (Digitaria sanguinalis); test: Test A pre-/postemergence plant response
Text: as §1, §2

[7] = tested on: velvetleaf (Abutilon theophrasti); test: Test A pre-/postemergence plant response
Text: as §1, §2

[8] = tested on: barnyardgrass (Echinochloa crus-galli); test: Test B flooded paddy test; details: for Plant response rating, Flood, Barnyardgrass: 250 g ai/ha, flooded paddy test, visual rating on 0 to 100 scale (0 no effect, 100 complete control) after 13 to 15 days; for Plant response rating, Barnyardgrass: Flood (flooded paddy test), 13 to 15 days; for Barnyardgrass plant response rating: Flood, 31 g ai/ha, scale 0 to 100 (0 no effect, 100 complete control)
Method in brief: (§3)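 Seedlings reaching 2 leaves are flooded 3 cm deep; test material is delivered to that water, which stays at the same depth. Plants remain in a greenhouse 13–15 days and are then scored by eye versus controls from 0 to 100.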

rice (Oryza sativa) = test: Test B flooded paddy test; details: for Plant response rating, Flood, Rice: 250 g ai/ha, flooded paddy test, visual rating on 0 to 100 scale (0 no effect, 100 complete control) after 13 to 15 days; for Plant response rating, Rice: Flood (flooded paddy test), 13 to 15 days; for Rice plant response rating: Flood, 31 g ai/ha, scale 0 to 100 (0 no effect, 100 complete control)
Method in brief: as §3

[9] = tested on: umbrella sedge (Cyperus difformis); test: Test B flooded paddy test; details: for Plant response rating, Flood, Sedge, Umbrella: 250 g ai/ha, flooded paddy test, visual rating on 0 to 100 scale (0 no effect, 100 complete control) after 13 to 15 days; for Plant response rating, Sedge, Umbrella: Flood (flooded paddy test), 13 to 15 days; for Sedge, Umbrella plant response rating: Flood, 31 g ai/ha, scale 0 to 100 (0 no effect, 100 complete control)
Method in brief: as §3

[10] = tested on: ducksalad (Heteranthera limosa); test: Test B flooded paddy test; details: for Plant response rating, Flood, Ducksalad: 250 g ai/ha, flooded paddy test, visual rating on 0 to 100 scale (0 no effect, 100 complete control) after 13 to 15 days; for Plant response rating, Ducksalad: Flood (flooded paddy test), 13 to 15 days; for Ducksalad plant response rating: Flood, 31 g ai/ha, scale 0 to 100 (0 no effect, 100 complete control)
Method in brief: as §3

[11] = Postemergence, 125 g ai/ha, 0 to 100 scale where 0 is no effect and 100 is complete control
[12] = Postemergence, 500 g ai/ha, 0 to 100 scale, 0 = no effect, 100 = complete control, approx. ten days
[13] = Preemergence, 125 g ai/ha, 0 to 100 scale, 0 = no effect, 100 = complete control
[14] = Preemergence, 500 g ai/ha, visual injury, 0 to 100 scale (0 no effect, 100 complete control), approx. ten days
[15] = 62 g ai/ha, scale of 0 to 100 where 0 is no effect and 100 is complete control
[16] = Postemergence, 500 g ai/ha, visual injury, 0 to 100 scale (0 no effect, 100 complete control), approx. ten days
[17] = Preemergence, 500 g ai/ha, 0 to 100 scale, 0 = no effect, 100 = complete control
[18] = 125 g ai/ha, scale 0 to 100, 0 is no effect, 100 is complete control

O=C1CCCC(O)=C1C(=O)c1cnc(C2CCC2)n(-c2ccccc2)c1=O [Compound 114]
Plant response rating, Wheat [1, 11]: 0 | Plant response rating, Wheat [1, 12]: 0 | Plant response rating, Wheat [1, 13]: 0 | Plant response rating, Wheat [1, 14]: 20 | Plant response rating, Barnyardgrass [2, 11]: 70 | Plant response rating, Barnyardgrass [2, 12]: 90 | Plant response rating, Barnyardgrass [2, 13]: 30 | Plant response rating, Barnyardgrass [2, 14]: 90 | Plant response rating, Corn (corn (Zea mays); [11]): 10 | Plant response rating, Corn (corn (Zea mays); [12]): 50 | Plant response rating, Corn (corn (Zea mays); [13]): 0 | Plant response rating, Corn (corn (Zea mays); [14]): 0 | Plant response rating, Morningglory [3, 11]: 90 | Plant response rating, Morningglory [3, 12]: 100 | Plant response rating, Morningglory [3, 13]: 0 | Plant response rating, Morningglory [3, 14]: 80 | Plant response rating, Pigweed [4, 11]: 100 | Plant response rating, Pigweed [4, 12]: 100 | Plant response rating, Pigweed [4, 13]: 100 | Plant response rating, Pigweed [4, 14]: 100 | Plant response rating, Foxtail, Giant [5, 11]: 60 | Plant response rating, Foxtail, Giant [5, 12]: 80 | Plant response rating, Foxtail, Giant [5, 13]: 40 | Plant response rating, Foxtail, Giant [5, 14]: 80 | Plant response rating, Crabgrass, Large [6, 11]: 80 | Plant response rating, Crabgrass, Large [6, 12]: 90 | Plant response rating, Crabgrass, Large [6, 13]: 90 | Plant response rating, Crabgrass, Large [6, 14]: 100 | Plant response rating, Velvetleaf [7, 11]: 100 | Plant response rating, Velvetleaf [7, 12]: 100 | Plant response rating, Velvetleaf [7, 13]: 70 | Plant response rating, Velvetleaf [7, 14]: 100 | Plant response rating, Flood, Barnyardgrass [8]: 40 | Plant response rating, Barnyardgrass [8, 15]: 20 | Plant response rating, Flood, Rice (rice (Oryza sativa)): 20 | Plant response rating, Rice (rice (Oryza sativa); [15]): 0 | Plant response rating, Flood, Sedge, Umbrella [9]: 40 | Plant response rating, Sedge, Umbrella [9, 15]: 30 | Plant response rating, Flood, Ducksalad [10]: 75 | Plant response rating, Ducksalad [10, 15]: 65

O=C1CCCC(O)=C1C(=O)c1cnc(-c2cc(F)cc(F)c2)n(CC2CCCO2)c1=O (stereo not shown) [Compound 180]
Plant response rating, Wheat [1, 11]: 0 | Wheat plant response rating [1, 16]: 30 | Plant response rating, Wheat [1, 13]: 0 | Plant response rating, Wheat [1, 17]: 20 | Plant response rating, Barnyardgrass [2, 11]: 90 | Barnyardgrass plant response rating [2, 16]: 100 | Plant response rating, Barnyardgrass [2, 13]: 30 | Plant response rating, Barnyardgrass [2, 17]: 80 | Plant response rating, Corn (corn (Zea mays); [11]): 10 | Corn plant response rating (corn (Zea mays); [16]): 40 | Plant response rating, Corn (corn (Zea mays); [13]): 0 | Plant response rating, Corn (corn (Zea mays); [17]): 0 | Plant response rating, Morningglory [3, 11]: 40 | Morningglory plant response rating [3, 16]: 100 | Plant response rating, Morningglory [3, 13]: 0 | Plant response rating, Pigweed [4, 11]: 100 | Pigweed plant response rating [4, 16]: 100 | Plant response rating, Pigweed [4, 13]: 90 | Plant response rating, Pigweed [4, 17]: 100 | Plant response rating, Foxtail, Giant [5, 11]: 70 | Foxtail, Giant plant response rating [5, 16]: 100 | Plant response rating, Foxtail, Giant [5, 13]: 30 | Plant response rating, Foxtail, Giant [5, 17]: 70 | Plant response rating, Crabgrass, Large [6, 11]: 90 | Crabgrass, Large plant response rating [6, 16]: 100 | Plant response rating, Crabgrass, Large [6, 13]: 80 | Plant response rating, Crabgrass, Large [6, 17]: 100 | Plant response rating, Velvetleaf [7, 11]: 100 | Velvetleaf plant response rating [7, 16]: 100 | Plant response rating, Velvetleaf [7, 13]: 80 | Plant response rating, Velvetleaf [7, 17]: 100 | Plant response rating, Barnyardgrass [8, 18]: 15 | Barnyardgrass plant response rating [8]: 0 | Plant response rating, Rice (rice (Oryza sativa); [18]): 30 | Rice plant response rating (rice (Oryza sativa)): 15 | Plant response rating, Sedge, Umbrella [9, 18]: 65 | Sedge, Umbrella plant response rating [9]: 20 | Plant response rating, Ducksalad [10, 18]: 75 | Ducksalad plant response rating [10]: 60

COCCCn1c(-c2cccc(Cl)c2)ncc(C(=O)C2=C(O)CCCC2=O)c1=O [Compound 143]
Plant response rating, Wheat [1, 11]: 0 | Plant response rating, Wheat [1, 12]: 10 | Plant response rating, Wheat [1, 13]: 0 | Plant response rating, Wheat [1, 14]: 0 | Plant response rating, Barnyardgrass [2, 11]: 70 | Plant response rating, Barnyardgrass [2, 12]: 90 | Plant response rating, Barnyardgrass [2, 13]: 40 | Plant response rating, Barnyardgrass [2, 14]: 90 | Plant response rating, Corn (corn (Zea mays); [11]): 10 | Plant response rating, Corn (corn (Zea mays); [12]): 20 | Plant response rating, Corn (corn (Zea mays); [13]): 0 | Plant response rating, Corn (corn (Zea mays); [14]): 0 | Plant response rating, Morningglory [3, 11]: 90 | Plant response rating, Morningglory [3, 12]: 100 | Plant response rating, Morningglory [3, 13]: 10 | Plant response rating, Morningglory [3, 14]: 70 | Plant response rating, Pigweed [4, 11]: 70 | Plant response rating, Pigweed [4, 12]: 90 | Plant response rating, Pigweed [4, 13]: 70 | Plant response rating, Pigweed [4, 14]: 90 | Plant response rating, Foxtail, Giant [5, 11]: 60 | Plant response rating, Foxtail, Giant [5, 12]: 80 | Plant response rating, Foxtail, Giant [5, 13]: 10 | Plant response rating, Foxtail, Giant [5, 14]: 70 | Plant response rating, Crabgrass, Large [6, 11]: 70 | Plant response rating, Crabgrass, Large [6, 12]: 90 | Plant response rating, Crabgrass, Large [6, 13]: 50 | Plant response rating, Crabgrass, Large [6, 14]: 90 | Plant response rating, Velvetleaf [7, 11]: 100 | Plant response rating, Velvetleaf [7, 12]: 100 | Plant response rating, Velvetleaf [7, 13]: 70 | Plant response rating, Velvetleaf [7, 14]: 100 | Plant response rating, Flood, Barnyardgrass [8]: 20 | Plant response rating, Barnyardgrass [8, 15]: 0 | Plant response rating, Barnyardgrass [8, 18]: 0 | Barnyardgrass plant response rating [8]: 0 | Plant response rating, Flood, Rice (rice (Oryza sativa)): 0 | Plant response rating, Rice (rice (Oryza sativa); [15]): 0 | Plant response rating, Rice (rice (Oryza sativa); [18]): 0 | Rice plant response rating (rice (Oryza sativa)): 0 | Plant response rating, Flood, Sedge, Umbrella [9]: 65 | Plant response rating, Sedge, Umbrella [9, 15]: 0 | Plant response rating, Sedge, Umbrella [9, 18]: 0 | Sedge, Umbrella plant response rating [9]: 0 | Plant response rating, Flood, Ducksalad [10]: 90 | Plant response rating, Ducksalad [10, 15]: 80 | Plant response rating, Ducksalad [10, 18]: 80 | Ducksalad plant response rating [10]: 80
